In ChEMBL document CHEMBL1201862, “PubChem BioAssay data set” (2004):
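Grown in 96-well plates, cells were treated for 48 hours with each compound at five concentrations. Insufficient inhibition: endpoint recorded as highest concentration tested. GI50 is the concentration that inhibits growth by half.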 Calls of active or inactive are those of the source. Cut-off read from the data, not from the text of the source: active = GI50 up to about 1.1 µM and inactive = higher.

Experiments:
Test in all cases: growth of human tumour cells (NCI), 48 h
[1] = tested on: 786-0
[2] = tested on: A549
[3] = tested on: ACHN
[4] = tested on: BT-549
[5] = tested on: COLO 205
[6] = tested on: HCT-116
[7] = tested on: HOP-92
[8] = tested on: Hs-578T
[9] = tested on: M14
[10] = tested on: MDA-MB-231
[11] = tested on: MDA-N
[12] = tested on: OVCAR-3
[13] = tested on: OVCAR-4
[14] = tested on: SK-MEL-5
[15] = tested on: SNB-19
[16] = tested on: T47D
[17] = tested on: TK-10
[18] = tested on: U-251
[19] = tested on: RPMI-8226

| Compound | GI50 [1] | GI50 [2] | GI50 [3] | GI50 [4] | GI50 [5] | GI50 [6] | GI50 [7] | GI50 [8] | GI50 [9] | GI50 [10] | GI50 [11] | GI50 [12] | GI50 [13] | GI50 [14] | GI50 [15] | GI50 [16] | GI50 [17] | GI50 [18] | GI50 [19] |
| --- | --- | --- | --- | --- | --- | --- | --- | --- | --- | --- | --- | --- | --- | --- | --- | --- | --- | --- | --- |
| COc1cc(-c2cc(-c3ccccc3)nc(-c3c(OC)ccc4c(C)cc(=O)oc34)c2)cc(OC)c1OC | > 100 µM (inactive) | > 100 µM (inactive) | > 100 µM (inactive) | > 100 µM (inactive) | > 100 µM (inactive) | > 100 µM (inactive) | > 100 µM (inactive) | > 100 µM (inactive) | > 100 µM (inactive) | > 100 µM (inactive) | > 100 µM (inactive) | > 100 µM (inactive) | > 100 µM (inactive) | > 100 µM (inactive) | > 100 µM (inactive) | > 100 µM (inactive) | > 100 µM (inactive) | > 100 µM (inactive) |  |
| Cc1nn(C(=O)c2ccccc2O)c2c1C(c1ccccc1O)SC(=N)N2 (configuration not stated) | 4.53 µM (inactive) | 8.04 µM (inactive) | 3.44 µM (inactive) | > 10 µM (inactive) | > 10 µM (inactive) | 4.12 µM (inactive) | > 10 µM (inactive) | > 10 µM (inactive) | 4.54 µM (inactive) | 0.649 µM (active) | > 10 µM (inactive) | 2.54 µM (inactive) | 2.53 µM (inactive) | 2.46 µM (inactive) |  | 5.78 µM (inactive) | 1.69 µM (inactive) | 4.39 µM (inactive) | 3.34 µM (inactive) |
| O=c1c2c3c(sc2nc2n1N=C(c1ccc([N+](=O)[O-])cc1)CS2)CCCC3 | > 100 µM (inactive) | > 100 µM (inactive) | > 100 µM (inactive) | > 100 µM (inactive) | > 100 µM (inactive) | > 100 µM (inactive) | > 100 µM (inactive) | > 100 µM (inactive) |  | > 100 µM (inactive) | > 100 µM (inactive) | > 100 µM (inactive) | > 100 µM (inactive) | > 100 µM (inactive) |  | > 100 µM (inactive) | 42.2 µM (inactive) | > 100 µM (inactive) | > 100 µM (inactive) |
| COc1ccc2c(c1)CCCN1Cc3cc(OC)c(OC)cc3CC21 (configuration not stated) | 73.3 µM (inactive) | > 100 µM (inactive) | > 100 µM (inactive) | > 100 µM (inactive) | 51.1 µM (inactive) | 18.2 µM (inactive) | 15.9 µM (inactive) | > 100 µM (inactive) | 18.9 µM (inactive) | > 100 µM (inactive) | > 100 µM (inactive) | 82.2 µM (inactive) | 43.7 µM (inactive) | 37.8 µM (inactive) | > 100 µM (inactive) | 20.2 µM (inactive) | > 100 µM (inactive) | > 100 µM (inactive) |  |
| COC(=O)C1CCCN1C(=O)OC(C)(C)C (configuration not stated) | > 100 µM (inactive) | > 100 µM (inactive) | > 100 µM (inactive) | > 100 µM (inactive) | > 100 µM (inactive) | > 100 µM (inactive) |  |  |  | > 100 µM (inactive) | > 100 µM (inactive) | > 100 µM (inactive) | > 100 µM (inactive) | > 100 µM (inactive) | > 100 µM (inactive) | > 100 µM (inactive) | > 100 µM (inactive) | > 100 µM (inactive) |  |
| O=S(=O)(Nc1ccccc1)c1ccc(-c2c3nc(c(-c4ccc(S(=O)(=O)Nc5ccccc5)cc4)c4ccc([nH]4)c(-c4ccc(S(=O)(=O)Nc5ccccc5)cc4)c4nc(c(-c5ccc(S(=O)(=O)Nc6ccccc6)cc5)c5ccc2[nH]5)C=C4)C=C3)cc1 | 18.9 µM (inactive) | > 31.6 µM (inactive) | 11.1 µM (inactive) | > 31.6 µM (inactive) | > 31.6 µM (inactive) | > 31.6 µM (inactive) | 12.8 µM (inactive) | > 31.6 µM (inactive) | 12.6 µM (inactive) | 24 µM (inactive) | > 31.6 µM (inactive) | > 10 µM (inactive) | 12.6 µM (inactive) | > 31.6 µM (inactive) | 14.1 µM (inactive) | > 31.6 µM (inactive) | > 31.6 µM (inactive) | > 31.6 µM (inactive) |  |
| CSc1nc(NCc2ccccc2)c2cnn(COCCO)c2n1 | > 100 µM (inactive) | 43.9 µM (inactive) | 31.9 µM (inactive) | 35.7 µM (inactive) | 29.9 µM (inactive) | 62.8 µM (inactive) | 18.2 µM (inactive) |  | 67.8 µM (inactive) | 55.6 µM (inactive) | 46.9 µM (inactive) | 57.8 µM (inactive) | 29.4 µM (inactive) | 41.5 µM (inactive) |  | 53.7 µM (inactive) | 61.9 µM (inactive) | 44.5 µM (inactive) | 38.5 µM (inactive) |
| CCC(CC)C(=O)OC[n+]1ccc(-c2c(COC(=O)NC(C)C)c(COC(=O)NC(C)C)c3n2CCC3)cc1 | > 100 µM (inactive) | > 100 µM (inactive) |  | > 100 µM (inactive) | > 100 µM (inactive) |  | > 100 µM (inactive) | > 100 µM (inactive) | > 100 µM (inactive) | > 100 µM (inactive) | > 100 µM (inactive) | > 100 µM (inactive) | > 100 µM (inactive) | > 100 µM (inactive) | > 100 µM (inactive) |  |  | > 100 µM (inactive) | > 100 µM (inactive) |
| C=C(Br)C(C)(Cl)CCC(Br)C(C)(C)Cl (configuration not stated) | 20.6 µM (inactive) | 36.1 µM (inactive) | 29.6 µM (inactive) | > 100 µM (inactive) | 27 µM (inactive) | 34.9 µM (inactive) | 35.1 µM (inactive) | 89.7 µM (inactive) | 32.9 µM (inactive) | 42.3 µM (inactive) | 48 µM (inactive) | 20 µM (inactive) | 47.8 µM (inactive) | 34.2 µM (inactive) | > 100 µM (inactive) | > 100 µM (inactive) | > 100 µM (inactive) | > 100 µM (inactive) |  |
| COc1ccc(C(C2=C(O)COC2=O)c2cc3c(cc2O)OCO3)cc1OC (configuration not stated) | > 100 µM (inactive) | > 100 µM (inactive) | > 100 µM (inactive) | > 100 µM (inactive) | > 100 µM (inactive) | > 100 µM (inactive) | > 100 µM (inactive) | > 100 µM (inactive) | > 100 µM (inactive) | > 100 µM (inactive) | > 100 µM (inactive) | > 100 µM (inactive) | > 100 µM (inactive) | > 100 µM (inactive) | > 100 µM (inactive) |  | > 100 µM (inactive) |  | > 100 µM (inactive) |
| O=CN1CCN(c2ccc3ccc(O)nc3n2)CC1 | > 100 µM (inactive) | > 100 µM (inactive) | > 100 µM (inactive) | > 100 µM (inactive) | > 100 µM (inactive) | > 100 µM (inactive) | > 100 µM (inactive) | > 100 µM (inactive) | > 100 µM (inactive) | > 100 µM (inactive) | > 100 µM (inactive) | > 100 µM (inactive) | > 100 µM (inactive) |  | > 100 µM (inactive) |  | > 100 µM (inactive) | > 100 µM (inactive) | > 100 µM (inactive) |
| N#Cc1ccsc1Nc1ccccc1[N+](=O)[O-] | > 100 µM (inactive) | > 100 µM (inactive) | > 100 µM (inactive) | 38.5 µM (inactive) | > 100 µM (inactive) | > 100 µM (inactive) | 68.7 µM (inactive) |  | > 100 µM (inactive) | 31.3 µM (inactive) | > 100 µM (inactive) | > 100 µM (inactive) | > 100 µM (inactive) |  | 52.2 µM (inactive) | > 100 µM (inactive) |  | 72.9 µM (inactive) | > 100 µM (inactive) |
| CC(C)C(=O)OCN(C)c1nc(N(C)COC(=O)C(C)C)nc(N(C)COC(=O)C(C)C)n1 | 28.5 µM (inactive) | 43.1 µM (inactive) | 32 µM (inactive) | 20.8 µM (inactive) | 20.1 µM (inactive) | 32.1 µM (inactive) |  | 17.9 µM (inactive) | 17 µM (inactive) | 25.2 µM (inactive) | 22.2 µM (inactive) | 36.6 µM (inactive) | 23.8 µM (inactive) | 15.1 µM (inactive) | 42.1 µM (inactive) | 30.3 µM (inactive) | 85.7 µM (inactive) |  | 22.8 µM (inactive) |
| CCN(CC(=O)O)C(=O)c1cccnc1 | > 100 µM (inactive) | > 100 µM (inactive) | > 100 µM (inactive) | > 100 µM (inactive) |  | > 100 µM (inactive) | > 100 µM (inactive) | > 100 µM (inactive) | > 100 µM (inactive) | > 100 µM (inactive) | > 100 µM (inactive) | > 100 µM (inactive) | > 100 µM (inactive) |  | > 100 µM (inactive) | > 100 µM (inactive) | > 100 µM (inactive) | > 100 µM (inactive) |  |
| Cc1nc(C)c(C(=O)NNC(=O)C[N+](C)(C)C)cc1C(=O)NNC(=O)C[N+](C)(C)C | > 100 µM (inactive) | > 100 µM (inactive) | > 100 µM (inactive) | > 100 µM (inactive) | > 100 µM (inactive) | > 100 µM (inactive) | > 100 µM (inactive) |  | > 100 µM (inactive) | > 100 µM (inactive) | > 100 µM (inactive) | > 100 µM (inactive) | > 100 µM (inactive) | > 100 µM (inactive) | > 100 µM (inactive) | 74.1 µM (inactive) | > 100 µM (inactive) | > 100 µM (inactive) |  |
| Cc1cc2nc3ccccc3n2c2nc(N)ccc12 | 16.7 µM (inactive) | 30.9 µM (inactive) | 15.4 µM (inactive) | 68.9 µM (inactive) | 32.9 µM (inactive) | 14.8 µM (inactive) | 16.6 µM (inactive) | 35.3 µM (inactive) | 48 µM (inactive) | 58.2 µM (inactive) | 49.4 µM (inactive) | 63.7 µM (inactive) | 44.9 µM (inactive) | 13.6 µM (inactive) | 20.6 µM (inactive) | 38.2 µM (inactive) | 55.8 µM (inactive) |  | 14.8 µM (inactive) |
